{"source": "patent US20240287015A1", "about": "“Method for Producing an Ionizable Lipid” (NanoVation Therapeutics Inc., priority 2021, published 2024)", "origin": "cited, not measured here", "settings": "siRNA LNP formulations; MC3 relative to similar KC2-based formulations", "data": [{"smiles": "CCCCC/C=C\\C/C=C\\CCCCCCCCC(CCCCCCCC/C=C\\C/C=C\\CCCCC)OC(=O)CCCN(C)C", "note": "[MC3, (6Z,9Z,28Z,31Z)-heptatriacont-6,9,28,31-tetraene-19-yl 4-(dimethylamino)butanoate]", "values": [{"measurement": "times less siRNA required than KC2 to attain the same end result", "result": "about 3 times"}]}]}
